Test results: publication PMC3506619, “NADP^+ Binding to the Regulatory Subunit of Methionine Adenosyltransferase II Increases Intersubunit Binding Affinity in the Hetero-Trimer” (PLoS ONE, 2012)
Substitutions are numbered along the chain they refer to.

Columns and labels:
[1] = biological target: T1, MAT II (α2 dimer + wild type β hetero-trimer) (Homo sapiens, UniProt P31153, G193S/A233V, form not given); assay: MAT activity assay (AdoMet synthesis); assay type: biochemical; settings: 5 mM methionine, 37 °C, no added NADP+
T1 construct: gene MAT2A; hetero-trimer 2:1; with Methionine adenosyltransferase 2 subunit beta
T1 sequence (P31153 whole entry G193S/A233V, form open): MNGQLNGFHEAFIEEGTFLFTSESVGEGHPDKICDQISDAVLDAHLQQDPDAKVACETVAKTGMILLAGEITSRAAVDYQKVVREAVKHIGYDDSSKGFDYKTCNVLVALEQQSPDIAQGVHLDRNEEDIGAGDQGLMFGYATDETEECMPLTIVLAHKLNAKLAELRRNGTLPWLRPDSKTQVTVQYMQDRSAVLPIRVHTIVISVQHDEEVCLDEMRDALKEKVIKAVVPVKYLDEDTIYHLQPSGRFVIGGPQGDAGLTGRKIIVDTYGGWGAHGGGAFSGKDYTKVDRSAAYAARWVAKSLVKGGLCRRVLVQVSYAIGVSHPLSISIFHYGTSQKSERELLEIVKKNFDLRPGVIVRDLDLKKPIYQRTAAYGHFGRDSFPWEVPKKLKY
T1 sequence (Q9NZL9 whole entry Y159F/K163A partner, form open): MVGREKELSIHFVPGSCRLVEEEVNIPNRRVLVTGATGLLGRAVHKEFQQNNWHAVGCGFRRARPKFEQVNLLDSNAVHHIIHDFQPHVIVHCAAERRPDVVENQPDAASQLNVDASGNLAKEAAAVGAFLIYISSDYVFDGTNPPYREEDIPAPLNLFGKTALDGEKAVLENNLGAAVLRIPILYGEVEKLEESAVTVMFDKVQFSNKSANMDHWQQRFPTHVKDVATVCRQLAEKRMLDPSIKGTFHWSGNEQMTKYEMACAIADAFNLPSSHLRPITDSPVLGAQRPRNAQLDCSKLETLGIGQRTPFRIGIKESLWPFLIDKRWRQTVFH
Description: MAT activity assay (AdoMet synthesis) on MAT II (α2 dimer + wild type β hetero-trimer)

[2] = biological target: T2, refolded-α2 (MAT α2 homo-dimer) (Homo sapiens, UniProt P31153, G193S/A233V); assay: MAT activity assay (AdoMet synthesis); assay type: biochemical; settings: 5 mM methionine, 37 °C, no added NADP+
T2 construct: gene MAT2A; 43447 Da; dimer (tetramer at higher concentration); all cloned ORFs carry A233V and G193S
T2 sequence (P31153 whole entry G193S/A233V): as the sequence (P31153 whole entry G193S/A233V, form open) above
Description: MAT activity assay (AdoMet synthesis) on refolded-α2 (MAT α2 homo-dimer)

[3] = biological target: T3, Truncated MAT II (α2 dimer + ΔS16 β) (Homo sapiens, UniProt P31153, G193S/A233V); assay: MAT activity assay (AdoMet synthesis); assay type: biochemical; settings: 5 mM methionine, 37 °C, no added NADP+
T3 construct: gene MAT2A; ratio 2:1; with Methionine adenosyltransferase 2 subunit beta
T3 sequence (P31153 whole entry G193S/A233V, stated change not applied, one chain of several, the tested form may be a part): as the sequence (P31153 whole entry G193S/A233V, form open) above
Description: MAT activity assay (AdoMet synthesis) on Truncated MAT II (α2 dimer + ΔS16 β)

[4] = biological target: T4, MAT β subunit (regulatory β subunit, V1 form) (Homo sapiens, UniProt Q9NZL9); assay: isothermal titration calorimetry; assay type: binding; settings: read-out: NADP^+→β
T4 construct: gene MAT2B; full length V1 from GST fusion in E. coli, TEV-cut, GSH linker retained at N-terminus; monomer/dimer equilibrium
T4 sequence (Q9NZL9 1-334): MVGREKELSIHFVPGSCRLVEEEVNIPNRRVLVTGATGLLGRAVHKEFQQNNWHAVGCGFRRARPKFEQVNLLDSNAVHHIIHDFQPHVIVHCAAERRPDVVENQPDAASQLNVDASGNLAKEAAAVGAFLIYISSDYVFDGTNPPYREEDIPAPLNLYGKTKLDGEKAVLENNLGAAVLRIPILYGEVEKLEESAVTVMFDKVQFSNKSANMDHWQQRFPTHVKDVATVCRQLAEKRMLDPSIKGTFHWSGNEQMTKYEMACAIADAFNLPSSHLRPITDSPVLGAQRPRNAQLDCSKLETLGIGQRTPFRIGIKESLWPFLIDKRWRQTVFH
Description: isothermal titration calorimetry on MAT β subunit (regulatory β subunit, V1 form)

[5] = biological target: T5, MAT β subunit (regulatory β subunit, V1 form) (Homo sapiens, UniProt Q9NZL9, K163A/Y159F); assay: isothermal titration calorimetry; assay type: binding
T5 construct: gene MAT2B; full length V1 from GST fusion in E. coli, TEV-cut, GSH linker retained at N-terminus; monomer/dimer equilibrium
T5 sequence (Q9NZL9 1-334 Y159F/K163A): T4 sequence (Q9NZL9 1-334) with Y159F, K163A

Question: `Nc1ncnc2c1ncn2[C@@H]1O[C@H](COP(=O)(O)OP(=O)(O)OP(=O)(O)O)[C@@H](O)[C@H]1O` [ATP] was tested. Which Km [1] did it give?
Answer: 125 ± 32.2 µM

Question: What about the Km [2] of the same molecule?
Answer: 254 ± 66.2 µM

Question: And the Km [3]?
Answer: 151 ± 81.4 µM

Question: How did the Kd [4] turn out when `NC(=O)c1ccc[n+]([C@@H]2O[C@H](COP(=O)(O)OP(=O)(O)OC[C@H]3O[C@@H](n4cnc5c(N)ncnc54)[C@H](OP(=O)(O)O)[C@@H]3O)[C@@H](O)[C@H]2O)c1` [NADP^+] was run?
Answer: 1.7 µM

Question: And the Kd [5]?
Answer: > 150 µM
